Results: ChEMBL document CHEMBL4334534, “Novel Methyl-aza-quinazolines as Inhibitors of the RAS-SOS Interaction” (ACS Med Chem Lett, 2020)

Legend:
[1] = biological target: Epidermal growth factor receptor (Homo sapiens, UniProt P00533); assay: Inhibition of EGFR phosphorylation at Y 1173 residues in human HeLa cells preincubated for 30 mins followed by EGF-stimulation and measured after 2 mins by ELISA; format: cell-based
SOS1-KRAS [2] = biological target: T1, SOS1-KRAS (Homo sapiens, UniProt P01116+Q07889, G12C); assay: Inhibition of human N-terminal GST-tagged K-RasG12C mutant/human N-terminal His-tagged SOS1 preincubated for 2 mis followed by SOS1 addition and measured after 20 mins in presence of GDP-Dy647P1 by HTRF assay
T1 sequence (P01116 whole entry G12C, stated change not applied): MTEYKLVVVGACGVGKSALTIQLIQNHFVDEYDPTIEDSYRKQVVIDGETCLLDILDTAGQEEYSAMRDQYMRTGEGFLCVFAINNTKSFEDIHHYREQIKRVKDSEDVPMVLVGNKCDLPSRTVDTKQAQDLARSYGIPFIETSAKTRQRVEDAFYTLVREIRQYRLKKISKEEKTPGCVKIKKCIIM
T1 sequence (Q07889 whole entry, stated change not applied): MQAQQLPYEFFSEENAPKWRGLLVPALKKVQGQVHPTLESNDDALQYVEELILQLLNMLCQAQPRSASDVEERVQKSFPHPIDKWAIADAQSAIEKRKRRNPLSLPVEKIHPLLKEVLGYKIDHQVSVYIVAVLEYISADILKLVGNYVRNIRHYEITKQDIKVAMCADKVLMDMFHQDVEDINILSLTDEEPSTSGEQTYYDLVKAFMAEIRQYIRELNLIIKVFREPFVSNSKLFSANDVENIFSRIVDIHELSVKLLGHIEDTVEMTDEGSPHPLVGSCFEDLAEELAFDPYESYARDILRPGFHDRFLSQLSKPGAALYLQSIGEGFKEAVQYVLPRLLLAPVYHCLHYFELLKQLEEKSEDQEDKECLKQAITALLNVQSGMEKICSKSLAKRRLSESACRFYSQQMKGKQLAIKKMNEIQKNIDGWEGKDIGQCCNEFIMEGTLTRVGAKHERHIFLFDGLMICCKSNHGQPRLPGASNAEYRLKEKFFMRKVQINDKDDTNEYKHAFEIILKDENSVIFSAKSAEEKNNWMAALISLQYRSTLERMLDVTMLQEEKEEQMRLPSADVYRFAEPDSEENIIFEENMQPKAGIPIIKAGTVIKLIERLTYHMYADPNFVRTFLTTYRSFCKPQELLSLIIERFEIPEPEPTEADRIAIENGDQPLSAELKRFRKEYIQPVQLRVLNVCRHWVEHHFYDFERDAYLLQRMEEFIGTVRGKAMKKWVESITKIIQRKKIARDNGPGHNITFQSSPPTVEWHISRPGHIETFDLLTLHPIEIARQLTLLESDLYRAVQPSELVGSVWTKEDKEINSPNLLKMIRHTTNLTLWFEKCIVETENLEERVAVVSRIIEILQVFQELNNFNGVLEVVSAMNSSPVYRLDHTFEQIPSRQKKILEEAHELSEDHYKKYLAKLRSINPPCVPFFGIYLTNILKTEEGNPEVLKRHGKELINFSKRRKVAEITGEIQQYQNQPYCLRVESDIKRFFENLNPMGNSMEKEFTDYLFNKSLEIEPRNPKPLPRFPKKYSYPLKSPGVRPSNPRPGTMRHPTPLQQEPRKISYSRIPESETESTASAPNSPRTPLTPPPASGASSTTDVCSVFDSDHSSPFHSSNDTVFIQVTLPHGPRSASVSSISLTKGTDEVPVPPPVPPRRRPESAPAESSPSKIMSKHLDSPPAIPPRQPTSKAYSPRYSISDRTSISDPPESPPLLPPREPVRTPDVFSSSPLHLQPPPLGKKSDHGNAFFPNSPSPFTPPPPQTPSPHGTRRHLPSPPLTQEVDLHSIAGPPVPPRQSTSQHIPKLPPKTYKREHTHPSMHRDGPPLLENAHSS

SOS1-KRAS [3] = biological target: T1, SOS1-KRAS; assay: Inhibition of human N-terminal GST-tagged K-RasG12C mutant/human N-terminal His-tagged SOS1 preincubated for 2 mis followed by SOS1 addition and measured after 60 mins by HTRF assay
SOS1-KRAS [4] = biological target: T1, SOS1-KRAS; assay: Inhibition of human N-terminal GST-tagged K-RasG12C mutant/human N-terminal His-tagged SOS1 preincubated for 2 mis followed by SOS1 addition and measured after 10 mins in presence of EDA-GTP-Dy647P1 by HTRF assay

Chain of Epidermal growth factor receptor (P00533 whole entry): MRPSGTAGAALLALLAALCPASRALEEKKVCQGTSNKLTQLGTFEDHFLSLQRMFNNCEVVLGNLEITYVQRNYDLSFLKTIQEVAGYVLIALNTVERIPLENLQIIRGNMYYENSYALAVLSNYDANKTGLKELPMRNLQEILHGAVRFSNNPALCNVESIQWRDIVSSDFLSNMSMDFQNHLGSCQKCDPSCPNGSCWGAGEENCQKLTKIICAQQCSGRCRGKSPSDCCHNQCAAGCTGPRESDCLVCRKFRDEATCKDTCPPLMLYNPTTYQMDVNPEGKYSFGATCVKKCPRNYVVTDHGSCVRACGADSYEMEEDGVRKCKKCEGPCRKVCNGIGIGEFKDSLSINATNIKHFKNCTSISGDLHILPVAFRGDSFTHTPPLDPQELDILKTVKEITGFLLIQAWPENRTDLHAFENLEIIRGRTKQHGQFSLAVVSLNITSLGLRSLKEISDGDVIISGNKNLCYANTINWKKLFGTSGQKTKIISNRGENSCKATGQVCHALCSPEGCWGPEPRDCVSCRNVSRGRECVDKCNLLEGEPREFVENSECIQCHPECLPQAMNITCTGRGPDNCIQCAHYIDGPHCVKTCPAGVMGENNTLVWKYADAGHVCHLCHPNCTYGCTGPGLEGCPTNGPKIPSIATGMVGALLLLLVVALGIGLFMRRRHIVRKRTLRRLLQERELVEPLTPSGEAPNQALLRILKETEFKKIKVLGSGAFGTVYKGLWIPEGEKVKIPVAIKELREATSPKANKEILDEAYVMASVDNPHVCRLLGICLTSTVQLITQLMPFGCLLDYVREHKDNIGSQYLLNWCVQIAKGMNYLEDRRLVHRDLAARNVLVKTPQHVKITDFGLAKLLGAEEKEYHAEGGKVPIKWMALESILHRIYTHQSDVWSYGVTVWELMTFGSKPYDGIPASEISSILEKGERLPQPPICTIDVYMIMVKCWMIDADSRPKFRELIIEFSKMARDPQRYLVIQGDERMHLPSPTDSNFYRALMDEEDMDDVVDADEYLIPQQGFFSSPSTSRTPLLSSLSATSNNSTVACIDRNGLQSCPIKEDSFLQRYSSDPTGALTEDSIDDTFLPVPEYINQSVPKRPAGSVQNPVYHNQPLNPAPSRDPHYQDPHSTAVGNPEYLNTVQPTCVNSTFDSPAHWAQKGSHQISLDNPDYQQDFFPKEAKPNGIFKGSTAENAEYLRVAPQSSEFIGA

SMILES	IC50 [1]	other results
CSc1cc2c(N[C@H](C)c3ccc(F)cc3)nc(C)nc2cn1	> 20 µM	–
CNCc1ccccc1-c1ccc(C(C)Nc2nc(C)nc3cnc(OCC4CCNC(=O)C4)cc23)s1 (centres undefined)	> 20 µM	–
Cc1nc(NC(C)c2ccc(-c3ccccc3CN(C)C)s2)c2cc(OCCN(C)C)ncc2n1 (centres undefined)	> 20 µM	IC50 (SOS1-KRAS [2]): 0.027 µM; IC50 (SOS1-KRAS [3]): 0.03 µM
COCCOc1cc2c(N[C@H](C)c3ccc(F)cc3)nc(C)nc2cn1	> 20 µM	–
CCOc1cc2c(N[C@H](C)c3ccc(F)cc3)nc(C)nc2cn1	> 20 µM	–
Cc1nc(NC(C)c2ccc(-c3ccccc3CN(C)C)s2)c2cc(N3CCN(Cc4cccnc4)CC3)ncc2n1 (centres undefined)	> 20 µM	IC50 (SOS1-KRAS [2]): 0.085 µM
CCCOc1cc2c(NC(C)c3ccc(-c4ccccc4CN(C)C)s3)nc(C)nc2cn1 (centres undefined)	> 20 µM	IC50 (SOS1-KRAS [2]): 0.038 µM
COc1cc2c(N[C@H](C)c3ccc(F)cc3)nc(C)nc2cn1	> 20 µM	–
Cc1nc(NC(C)c2ccc(-c3ccccc3CN(C)C)s2)c2cc(N3CC(NC(=O)CN4CCOCC4)C3)ncc2n1 (centres undefined)	> 20 µM	–
CCOc1cc2c(N[C@H](C)c3ccccc3)nc(C)nc2cn1	> 20 µM	–
Cc1nc(NC(C)c2ccc(-c3ccccc3CN(C)C)s2)c2cc(N3CCNC(=O)C3)ncc2n1 (centres undefined)	> 20 µM	IC50 (SOS1-KRAS [4]): 0.054 µM; IC50 (SOS1-KRAS [2]): 0.048 µM
CC(=O)NC1CCN(c2cc3c(NC(C)c4ccc(-c5ccccc5CN(C)C)s4)nc(C)nc3cn2)C1 (racemic)	> 20 µM	–
CC(=O)N[C@@H]1CCN(c2cc3c(NC(C)c4ccc(-c5ccccc5CN(C)C)s4)nc(C)nc3cn2)C1 (stereo in doubt; 60)	> 20 µM	–
CC(=O)N[C@H]1CCN(c2cc3c(NC(C)c4ccc(-c5ccccc5CN(C)C)s4)nc(C)nc3cn2)C1 (stereo in doubt; 61)	> 20 µM	–
CC(=O)N[C@@H]1CCN(c2cc3c(NC(C)c4ccc(-c5ccccc5CN(C)C)s4)nc(C)nc3cn2)C1 (stereo in doubt; 79)	–	IC50 ([1]; hela): > 20 µM
CC(=O)N[C@@H]1CCN(c2cc3c(NC(C)c4ccc(-c5ccccc5CN(C)C)s4)nc(C)nc3cn2)C1 (stereo in doubt; 80)	–	IC50 ([1]; hela): > 20 µM
CC(=O)N[C@H]1CCN(c2cc3c(NC(C)c4ccc(-c5ccccc5CN(C)C)s4)nc(C)nc3cn2)C1 (stereo in doubt; 81)	–	IC50 ([1]; hela): > 20 µM
CC(=O)N[C@H]1CCN(c2cc3c(NC(C)c4ccc(-c5ccccc5CN(C)C)s4)nc(C)nc3cn2)C1 (stereo in doubt; 82)	–	IC50 ([1]; hela): > 20 µM
